Measured values published in patent US8765748B2, “Indazolyl, benzimidazolyl, benzotriazolyl substituted indolinone derivatives as kinase inhibitors useful in the treatment of cancer” (University Health Network, priority 2007, dated 2014).

How the values were obtained:
[1] = tested on: HCT116+/+ colon cancer cell line; test: Cell growth inhibition, SRB assay, extended panel; type: cell-based; details: Homo sapiens, HCT-116, read-out: GI50 Range, HCT116+/+
Procedure: (§1) Breast cancer cells (MCF-7, MDA-MB-468, HCC1954), colon cancer cells (SW620) and lung cancer cells (A549), together with human mammary epithelial primary cells (HMEC), were seeded (1000 to 4000 per 80 μl per well depending on the cell growth rate) into 96 well plates, 24 hours before compound overlay. Compounds were prepared as 10 mM stock solutions in 100% DMSO which were diluted with DMEM (Dulbecco's Modified Eagle's Medium) cell growth Medium (Invitrogen, Burlington, ON, Canada) containing 10% FBS (Fetal Bovine Serum) to concentrations ranging from 50 nM to 250 μM. Aliquots (20 μl) from each concentration were overlaid to 80 μl of the pre-seeded cells in the 96 well plates to make final concentrations of 10 nM to 50 μM. The cells were cultured for 5 days before the Sulforhodamine B assay (SRB) was performed to determine the compound's cell growth inhibition activity.
(§2) Sulforhodamine B (purchased from Sigma, Oakville, ON, Canada) is a water-soluble dye that binds to the basic amino acids of the cellular proteins. Thus, colorimetric measurement of the bound dye provides an estimate of the total protein mass that is related to the cell number. the cells are fixed in situ by gently aspirating off the culture media and adding 50 μl ice cold 10% Tri-chloroacetic Acid (TCA) per well and incubate at 4° C. for 30-60 min, The plates are washed with water five times and allowed to air dry for 5 min. Addition of 50 μl 0.4% (w/v) SRB solution in 1% (v/v) acetic acid to each well and incubatation for 30 min at RT completes the staining reaction. Following staining, plates are washed four times with 1% acetic acid to remove unbound dye and then allowed to air dry for 5 min. The stain is solubilized with 100 μl of 10 mM Tris pH10.5 per well. Absorbance is read at 570 nm.
(§3) The percentage (%) of relative growth inhibition was calculated by comparing to DMSO treated only cells (100%). GI50's were determined for compounds with cytotoxic activity. The GI50 was calculated using GraphPad PRISM software (GraphPad Software, Inc., San Diego, Calif., USA).
(§4) In addition to the cell lines tested as described above, selected compounds have been assayed against an extended panel. […] The sulforhodamine B assay (SRB) described above was use to assay test compounds against the extended panel (Table 9).

[2] = tested on: HCT116+/− colon cancer cell line; test: Cell growth inhibition, SRB assay, extended panel; type: cell-based; details: Homo sapiens, HCT-116, read-out: GI50 Range, HCT116+/−
Procedure: as §1, §2, §3, §4

[3] = tested on: SKBR3 breast cancer cell line; test: Cell growth inhibition, SRB assay, extended panel; type: cell-based; details: Homo sapiens, SK-BR-3, read-out: GI50 Range, SKBR3
Procedure: as §1, §2, §3, §4

[4] = tested on: A172 brain cancer cell line; test: Cell growth inhibition, SRB assay, extended panel; type: cell-based; details: Homo sapiens, A 172, read-out: GI50 Range, A172
Procedure: as §1, §2, §3, §4

518A2 melanoma cell line = test: Cell growth inhibition, SRB assay, extended panel; type: cell-based; details: Homo sapiens, read-out: GI50 Range, 518A2
Procedure: as §1, §2, §3, §4

[5] = tested on: HS578T breast cancer cell line; test: Cell growth inhibition, SRB assay, extended panel; type: cell-based; details: Homo sapiens, Hs-578T, read-out: GI50 Range, HS578T
Procedure: as §1, §2, §3, §4

[6] = tested on: BT474 breast cancer cell line; test: Cell growth inhibition, SRB assay, extended panel; type: cell-based; details: Homo sapiens, BT-474, read-out: GI50 Range, BT474
Procedure: as §1, §2, §3, §4

[7] = tested on: T47 D breast cancer cell line; test: Cell growth inhibition, SRB assay, extended panel; type: cell-based; details: Homo sapiens, T47D; SRB, extended panel; read-out: GI50 Range, T47 D
Procedure: as §1, §2, §3, §4

[8] = tested on: H358 lung cancer cell line; test: Cell growth inhibition, SRB assay, extended panel; type: cell-based; details: Homo sapiens, NCI-H358, read-out: GI50 Range, H358
Procedure: as §1, §2, §3, §4

[9] = tested on: SK-OV-3 ovarian cancer cell line; test: Cell growth inhibition, SRB assay, extended panel; type: cell-based; details: Homo sapiens, read-out: GI50 Range, SK-OV-3
Procedure: as §1, §2, §3, §4

[10] = tested on: OVCAR-3 ovarian cancer cell line; test: Cell growth inhibition, SRB assay, extended panel; type: cell-based; details: Homo sapiens, read-out: GI50 Range, OVCAR-3
Procedure: as §1, §2, §3, §4

[11] = tested on: MDA-MB-231 breast cancer cell line; test: Cell growth inhibition, SRB assay, extended panel; type: cell-based; details: Homo sapiens, read-out: GI50 Range, MDA-MB-231
Procedure: as §1, §2, §3, §4

[12] = tested on: HCT-15 colon cancer cell line; test: Cell growth inhibition, SRB assay, extended panel; type: cell-based; details: Homo sapiens, read-out: GI50 Range, HCT-15
Procedure: as §1, §2, §3, §4

[13] = tested on: SK-N-SH brain cancer cell line; test: Cell growth inhibition, SRB assay, extended panel; type: cell-based; details: Homo sapiens, read-out: GI50 Range, SK-N-SH
Procedure: as §1, §2, §3, §4

[14] = tested on: Hs683 brain cancer cell line; test: Cell growth inhibition, SRB assay, extended panel; type: cell-based; details: Homo sapiens, Hs 683, read-out: GI50 Range, Hs683
Procedure: as §1, §2, §3, §4

[15] = tested on: SW 626 ovarian cancer cell line; test: Cell growth inhibition, SRB assay, extended panel; type: cell-based; details: Homo sapiens, SW626, read-out: GI50 Range, SW 626
Procedure: as §1, §2, §3, §4

[16] = tested on: 184A1 immortalized breast cell line; test: Cell growth inhibition, SRB assay, extended panel; type: cell-based; details: read-out: GI50 Range, 184A1
Procedure: as §1, §2, §3, §4

[17] = tested on: Colo 205 colon cancer cell line; test: Cell growth inhibition, SRB assay, extended panel; type: cell-based; details: Homo sapiens, read-out: GI50 Range, Colo 205
Procedure: as §1, §2, §3, §4

[18] = tested on: PC-3 prostate cancer cell line; test: Cell growth inhibition, SRB assay, extended panel; type: cell-based; details: read-out: GI50 Range, PC-3
Procedure: as §1, §2, §3, §4

AMPKa = test: Kinase Selectivity Assay (CEREP, HTRF); type: biochemical, human
Procedure: (§5) kinase, ROCK2, RSK2, Src kinase, Syk, and TRKA. The % Inhibition was determined

Abl = Abl (Homo sapiens, UniProt P00519); test: Kinase Selectivity Assay (CEREP, HTRF); type: biochemical; parameters: CEREP, France (ran the assays); details: read-out: % Inhibition at 10 μM Concentration, Abl
Procedure: as §5

KDR = target: T1, KDR (Homo sapiens, UniProt P35968); test: Millipore kinase assay, radiolabelled phosphopeptide filter binding, IC50 estimate; type: biochemical; details: estimated from inhibition at three compound concentrations; ATP at the Km
T1 construct: purchased Millipore (assay service)
Procedure: Kinase assays at Millipore were performed using a radiolabelled phosphopeptide filter binding detection system, in duplicate, at each compound concentration. The ATP substrate concentration in the reactions was at the Km for each enzyme.
To allow for a more direct comparison of compound inhibition, an IC50 value was estimated from the inhibition determined at three compound concentrations. Several assumptions were made to allow this calculation using a 4 parameter non linear curve fit model, including full inhibition set at 100%, no inhibition set to 0%, and a curve fit parameter set at 1. The inflection point was reported as the estimated IC50.

Abl, sequence (P00519 whole entry): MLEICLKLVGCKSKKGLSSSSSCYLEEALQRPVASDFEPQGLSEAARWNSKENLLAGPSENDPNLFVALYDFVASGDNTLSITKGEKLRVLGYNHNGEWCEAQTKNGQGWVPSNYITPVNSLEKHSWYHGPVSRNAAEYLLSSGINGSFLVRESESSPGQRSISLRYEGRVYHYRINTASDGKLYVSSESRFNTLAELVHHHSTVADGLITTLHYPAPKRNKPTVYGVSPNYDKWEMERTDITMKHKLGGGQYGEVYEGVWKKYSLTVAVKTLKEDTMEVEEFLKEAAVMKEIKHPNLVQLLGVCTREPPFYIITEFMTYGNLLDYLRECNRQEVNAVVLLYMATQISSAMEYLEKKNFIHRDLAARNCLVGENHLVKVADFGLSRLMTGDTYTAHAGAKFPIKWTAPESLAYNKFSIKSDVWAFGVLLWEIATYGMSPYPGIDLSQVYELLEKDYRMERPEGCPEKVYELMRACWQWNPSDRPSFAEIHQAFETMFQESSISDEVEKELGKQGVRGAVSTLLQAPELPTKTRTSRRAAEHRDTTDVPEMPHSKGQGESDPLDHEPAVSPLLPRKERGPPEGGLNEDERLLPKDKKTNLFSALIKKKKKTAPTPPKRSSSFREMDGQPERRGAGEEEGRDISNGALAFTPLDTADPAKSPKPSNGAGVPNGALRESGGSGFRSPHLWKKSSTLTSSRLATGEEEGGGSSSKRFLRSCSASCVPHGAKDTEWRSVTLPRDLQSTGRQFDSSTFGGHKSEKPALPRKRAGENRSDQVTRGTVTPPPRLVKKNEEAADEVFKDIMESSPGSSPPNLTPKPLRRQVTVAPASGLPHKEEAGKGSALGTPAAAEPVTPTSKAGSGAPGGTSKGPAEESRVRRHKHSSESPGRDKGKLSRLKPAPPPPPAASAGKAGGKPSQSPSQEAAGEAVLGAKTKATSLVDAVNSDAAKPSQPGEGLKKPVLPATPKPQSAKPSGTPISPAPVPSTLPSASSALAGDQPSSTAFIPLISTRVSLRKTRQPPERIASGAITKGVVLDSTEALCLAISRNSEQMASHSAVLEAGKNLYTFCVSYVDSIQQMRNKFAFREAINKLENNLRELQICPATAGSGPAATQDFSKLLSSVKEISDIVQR
T1 sequence (P35968 20-1356): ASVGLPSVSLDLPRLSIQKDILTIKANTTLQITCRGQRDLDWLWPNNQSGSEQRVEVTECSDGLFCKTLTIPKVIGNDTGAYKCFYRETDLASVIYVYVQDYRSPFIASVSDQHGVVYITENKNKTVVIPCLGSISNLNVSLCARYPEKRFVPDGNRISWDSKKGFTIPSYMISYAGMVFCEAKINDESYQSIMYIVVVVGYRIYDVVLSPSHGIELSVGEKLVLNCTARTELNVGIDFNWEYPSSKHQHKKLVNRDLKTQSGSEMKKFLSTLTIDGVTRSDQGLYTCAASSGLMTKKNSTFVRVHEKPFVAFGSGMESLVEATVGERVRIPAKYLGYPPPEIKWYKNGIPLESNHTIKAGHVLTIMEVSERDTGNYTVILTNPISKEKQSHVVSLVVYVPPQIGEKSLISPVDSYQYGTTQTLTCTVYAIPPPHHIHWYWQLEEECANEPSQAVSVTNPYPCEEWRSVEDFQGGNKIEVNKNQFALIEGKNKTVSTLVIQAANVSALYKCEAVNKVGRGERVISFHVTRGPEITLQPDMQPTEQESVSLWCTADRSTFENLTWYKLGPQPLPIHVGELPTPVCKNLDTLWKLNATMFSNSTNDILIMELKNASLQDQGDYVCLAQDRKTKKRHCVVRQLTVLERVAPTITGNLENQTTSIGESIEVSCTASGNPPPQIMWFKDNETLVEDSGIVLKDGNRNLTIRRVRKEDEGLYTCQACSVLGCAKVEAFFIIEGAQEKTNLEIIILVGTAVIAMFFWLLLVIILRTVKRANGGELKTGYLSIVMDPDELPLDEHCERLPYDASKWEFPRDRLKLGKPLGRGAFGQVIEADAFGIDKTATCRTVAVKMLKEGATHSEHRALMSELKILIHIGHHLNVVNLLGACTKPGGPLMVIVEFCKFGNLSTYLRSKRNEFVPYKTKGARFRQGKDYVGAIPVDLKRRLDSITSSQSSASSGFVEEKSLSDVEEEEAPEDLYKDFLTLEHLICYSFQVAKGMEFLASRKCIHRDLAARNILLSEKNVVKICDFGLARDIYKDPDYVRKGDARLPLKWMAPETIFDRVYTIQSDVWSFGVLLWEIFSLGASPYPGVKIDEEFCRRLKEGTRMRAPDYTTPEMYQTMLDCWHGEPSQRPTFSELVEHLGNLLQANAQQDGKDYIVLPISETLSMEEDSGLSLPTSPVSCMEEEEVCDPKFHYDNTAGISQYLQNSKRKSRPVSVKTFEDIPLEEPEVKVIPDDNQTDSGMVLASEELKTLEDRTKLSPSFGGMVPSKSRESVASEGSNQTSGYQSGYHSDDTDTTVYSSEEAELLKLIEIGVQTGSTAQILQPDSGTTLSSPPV

SMILES	GI50 [1]	GI50 [2]	GI50 [3]	GI50 [4]	GI50 (518A2 melanoma cell line)	GI50 [5]	GI50 [6]	GI50 [7]	GI50 [8]	GI50 [9]	GI50 [10]	GI50 [11]	GI50 [12]	GI50 [13]	GI50 [14]	GI50 [15]	GI50 [16]	GI50 [17]	% Inhibition at 10 μM Concentration, AMPKalpha (AMPKa)	inhibition at 10 µM (Abl)	further results
CN1CCN(c2ccc(/C=C/c3n[nH]c4cc(C=C5C(=O)Nc6ccccc65)ccc34)cn2)CC1 (mixture of isomers) [Example A108, (E and Z)-3-((3-((E)-2-(6-(4-methylpiperazin-1-yl)pyridin-3-yl)vinyl)-1H-indazol-6-yl)methylene)indolin-2-one]	< 5 µM	< 5 µM	< 5 µM	< 5 µM	< 5 µM	< 5 µM	< 5 µM	< 5 µM	< 5 µM	< 5 µM	< 5 µM	< 5 µM	< 5 µM	< 5 µM	< 5 µM	< 5 µM	< 5 µM	< 5 µM			GI50 [18]: < 5 µM
O=C1Nc2ccccc2/C1=C\c1ccc2c(/C=C/c3ccccc3Cl)n[nH]c2c1 [Example A60, (E)-3-((3-((E)-2-chlorostyryl)-1H-indazol-6-yl)methylene)indolin-2-one]																			8%	40%	
O=C1Nc2ccccc2C1=Cc1ccc2c(/C=C/c3ccccn3)n[nH]c2c1 (mixture of isomers) [Example A41, (E and Z)-3-((3-((E)-2-(pyridin-2-yl)vinyl)-1H-indazol-6-yl)methylene)indolin-2-one]	> 50 µM	> 50 µM	< 5 µM	< 5 µM	< 5 µM	5 to 20 µM	> 50 µM	< 5 µM	< 5 µM	> 50 µM	> 50 µM	5 to 20 µM	< 5 µM	< 5 µM	< 5 µM	> 50 µM	20 to 50 µM	< 5 µM	81%	100%	GI50 [18]: 20 to 50 µM; IC50 (KDR): < 5 µM
O=C1Nc2ncc(Br)cc2C1=Cc1ccc2c(/C=C/c3ccncc3)n[nH]c2c1 (mixture of isomers) [Example A109, (E and Z)-5-bromo-3-((3-((E)-2-(pyridin-4-yl)vinyl)-1H-indazol-6-yl)methyl-ene)-1H-pyrrolo[2,3-b]pyridin-2(3H)-one]	< 5 µM	< 5 µM	> 50 µM	< 5 µM	< 5 µM	< 5 µM	5 to 20 µM	< 5 µM	< 5 µM	5 to 20 µM	< 5 µM	< 5 µM	< 5 µM	< 5 µM	< 5 µM	5 to 20 µM	< 5 µM	< 5 µM			GI50 [18]: < 5 µM
O=C1Nc2ccccc2/C1=C\c1ccc2[nH]nnc2c1 [Example A1, (E)-3-((1H-benzo[d][1,2,3]triazol-5-yl)methylene)indolin-2-one]																			15%	34%	
COc1ccc2c(c1)C(=Cc1ccc3c(-c4ccc(N5CCN(C)CC5)nc4)n[nH]c3c1)C(=O)N2 (mixture of isomers) [Example A97, (E and Z)-5-methoxy-3-((3-(6-(4-methylpiperazin-1-yl)pyridin-3-yl)-1H-indazol-6-yl)methylene)indolin-2-one]	< 5 µM	< 5 µM	< 5 µM			< 5 µM	< 5 µM	< 5 µM				< 5 µM					< 5 µM	< 5 µM	76%	99%	IC50 (KDR): < 5 µM
O=C1Nc2ccccc2/C1=C\c1ccc2cn[nH]c2c1 [Example A5, (E)-3-((1H-indazol-6-yl)methylene)indolin-2-one]																			54%	24%	
